# Measured values: patent publication US8216802B2, “Detection medium for gram negative bacteria” (Biomerieux, priority 2007, dated 2012)
# What was measured:
# Format in all cases: cell-based
# Citrobacter freundii 022 [1] = assay: Colony coloration on CPS ID 3 medium with cellobiose; conditions: 37° C.
# Procedure: (§1) Various concentrations of cellobiose (0-100-350-1000 mg/l) are added to the CPS ID 3 medium (bioMérieux). These media contain 6-chloro-3-indolyl-beta-glucuronide at 250 mg/l and 5-bromo-4-chloro-3-indolyl-beta-glucoside at 50 mg/l. These media are distributed in a proportion of 20 ml per Petri dish. Microorganisms derived from the applicant's collection were inoculated on these media by semi-quantitative isolation of 10 μl of a suspension at 0.5 McFarland, diluted to 1/20. The dishes were incubated at 37° C. for 48 hours. The colonies formed were examined visually after 24 and 48 hours of incubation. The coloration of these colonies was noted.
# Citrobacter freundii 031 [2] = assay: as above; conditions: 37° C.
# Procedure: as §1
# Citrobacter freundii 104 [3] = assay: as above; conditions: 37° C.
# Procedure: as §1
# [4] = test system: Enterococcus faecalis 117; assay: as above; conditions: 37° C.
# Procedure: as §1
# Escherichia coli 003 [5] = assay: as above; conditions: 37° C.
# Procedure: as §1
# Escherichia coli 407 = assay: as above; conditions: 37° C.
# Procedure: as §1
# [6] = test system: Klebsiella pneumoniae 111; assay: as above; conditions: 37° C.
# Procedure: as §1
# Serratia marcescens 112 [7] = assay: as above; conditions: 37° C.
# Procedure: as §1
# Citrobacter freundii 022 [8] = assay: Colony coloration on supplemented Trypticase Soy medium with cellobiose; conditions: 37° C.
# Procedure: (§2) Various concentrations of cellobiose (0-0.1-1-5-10 g/l) are added to Trypticase Soy medium (bioMérieux) supplemented with 5-bromo-6-chloro-3-indolyl-beta-galactoside at 50 mg/l and with 5-bromo-4-chloro-3-indolyl-beta-glucoside at 50 mg/l. These media are distributed in a proportion of 20 ml per Petri dish. Microorganisms derived from the applicant's collection were inoculated on these media by semi-quantitative isolation of 10 μl of a suspension at 0.5 McFarland, diluted to 1/20. The dishes were incubated at 37° C. for 48 hours. The colonies formed were examined visually after 24 and 48 hours of incubation. The coloration of these colonies was noted.
# Citrobacter freundii 031 [9] = assay: as above; conditions: 37° C.
# Procedure: as §2
# Citrobacter freundii 104 [10] = assay: as above; conditions: 37° C.
# Procedure: as §2
# [11] = test system: Enterococcus faecalis 117; assay: as above; conditions: 37° C.
# Procedure: as §2
# Escherichia coli 003 [12] = assay: as above; conditions: 37° C.
# Procedure: as §2
# Escherichia coli 018 = assay: as above; conditions: 37° C.
# Procedure: as §2
# [13] = test system: Klebsiella pneumoniae 111; assay: as above; conditions: 37° C.
# Procedure: as §2
# Serratia marcescens 112 [14] = assay: as above; conditions: 37° C.
# Procedure: as §2
# Citrobacter strains [15] = assay: Colony coloration on CPS ID 3 medium with cellobiose (text summary); conditions: in the presence of cellobiose
# Procedure: as §1
# Citrobacter strains [16] = assay: Colony coloration on supplemented Trypticase Soy medium with cellobiose (text summary)
# Procedure: as §2
smiles,measurement,setting,value
"O=C[C@H](O)[C@@H](O)[C@H](O[C@@H]1O[C@H](CO)[C@@H](O)[C@H](O)[C@H]1O)[C@H](O)CO [Cellobiose, cellobiose]",colony coloration,"Citrobacter freundii 022 [1]; cellobiose 100 mg/l, 24 h",Violet
same,colony coloration,"Citrobacter freundii 022 [1]; cellobiose 100 mg/l, 48 h",Violet
same,colony coloration,"Citrobacter freundii 022 [1]; cellobiose 350 mg/l, 24 h",Violet
same,colony coloration,"Citrobacter freundii 022 [1]; cellobiose 350 mg/l, 48 h",Violet
same,colony coloration,"Citrobacter freundii 022 [1]; cellobiose 1000 mg/l, 24 h",Violet
same,colony coloration,"Citrobacter freundii 022 [1]; cellobiose 1000 mg/l, 48 h",Violet
same,colony coloration,"Citrobacter freundii 031 [2]; cellobiose 100 mg/l, 24 h",Green
same,colony coloration,"Citrobacter freundii 031 [2]; cellobiose 100 mg/l, 48 h",Green
same,colony coloration,"Citrobacter freundii 031 [2]; cellobiose 350 mg/l, 24 h",Green
same,colony coloration,"Citrobacter freundii 031 [2]; cellobiose 350 mg/l, 48 h",Green
same,colony coloration,"Citrobacter freundii 031 [2]; cellobiose 1000 mg/l, 24 h",Colorless
same,colony coloration,"Citrobacter freundii 031 [2]; cellobiose 1000 mg/l, 48 h",Green
same,colony coloration,"Citrobacter freundii 104 [3]; cellobiose 100 mg/l, 24 h",Green
same,colony coloration,"Citrobacter freundii 104 [3]; cellobiose 100 mg/l, 48 h",Green
same,colony coloration,"Citrobacter freundii 104 [3]; cellobiose 350 mg/l, 24 h",Green
same,colony coloration,"Citrobacter freundii 104 [3]; cellobiose 350 mg/l, 48 h",Green
same,colony coloration,"Citrobacter freundii 104 [3]; cellobiose 1000 mg/l, 24 h",Green
same,colony coloration,"Citrobacter freundii 104 [3]; cellobiose 1000 mg/l, 48 h",Green
same,colony coloration,"[4]; cellobiose 100 mg/l, 24 h",Turquoise
same,colony coloration,"[4]; cellobiose 100 mg/l, 48 h",Turquoise
same,colony coloration,"[4]; cellobiose 350 mg/l, 24 h",Turquoise
same,colony coloration,"[4]; cellobiose 350 mg/l, 48 h",Turquoise
same,colony coloration,"[4]; cellobiose 1000 mg/l, 24 h",Turquoise
same,colony coloration,"[4]; cellobiose 1000 mg/l, 48 h",Turquoise
same,colony coloration,"Escherichia coli 003 [5]; cellobiose 100 mg/l, 24 h",Pink
same,colony coloration,"Escherichia coli 003 [5]; cellobiose 100 mg/l, 48 h",Red
same,colony coloration,"Escherichia coli 003 [5]; cellobiose 350 mg/l, 24 h",Pink
same,colony coloration,"Escherichia coli 003 [5]; cellobiose 350 mg/l, 48 h",Red
same,colony coloration,"Escherichia coli 003 [5]; cellobiose 1000 mg/l, 24 h",Pink
same,colony coloration,"Escherichia coli 003 [5]; cellobiose 1000 mg/l, 48 h",Red
same,colony coloration,"Escherichia coli 407; cellobiose 100 mg/l, 24 h",Pink
same,colony coloration,"Escherichia coli 407; cellobiose 100 mg/l, 48 h",Red
same,colony coloration,"Escherichia coli 407; cellobiose 350 mg/l, 24 h",Pink
same,colony coloration,"Escherichia coli 407; cellobiose 350 mg/l, 48 h",Red
same,colony coloration,"Escherichia coli 407; cellobiose 1000 mg/l, 24 h",Pink
same,colony coloration,"Escherichia coli 407; cellobiose 1000 mg/l, 48 h",Red
same,colony coloration,"[6]; cellobiose 100 mg/l, 24 h",Turquoise
same,colony coloration,"[6]; cellobiose 100 mg/l, 48 h",Turquoise
same,colony coloration,"[6]; cellobiose 350 mg/l, 24 h",Turquoise
same,colony coloration,"[6]; cellobiose 350 mg/l, 48 h",Turquoise
same,colony coloration,"[6]; cellobiose 1000 mg/l, 24 h",Turquoise
same,colony coloration,"[6]; cellobiose 1000 mg/l, 48 h",Turquoise
same,colony coloration,"Serratia marcescens 112 [7]; cellobiose 100 mg/l, 24 h",Turquoise
same,colony coloration,"Serratia marcescens 112 [7]; cellobiose 100 mg/l, 48 h",Turquoise
same,colony coloration,"Serratia marcescens 112 [7]; cellobiose 350 mg/l, 24 h",Turquoise
same,colony coloration,"Serratia marcescens 112 [7]; cellobiose 350 mg/l, 48 h",Turquoise
same,colony coloration,"Serratia marcescens 112 [7]; cellobiose 1000 mg/l, 24 h",Turquoise
same,colony coloration,"Serratia marcescens 112 [7]; cellobiose 1000 mg/l, 48 h",Turquoise
same,colony coloration,"Citrobacter freundii 022 [8]; cellobiose 0.1 g/l, 24 h",Violet
same,colony coloration,"Citrobacter freundii 022 [8]; cellobiose 0.1 g/l, 48 h",Blue
same,colony coloration,"Citrobacter freundii 022 [8]; cellobiose 1 g/l, 24 h",Violet
same,colony coloration,"Citrobacter freundii 022 [8]; cellobiose 1 g/l, 48 h",Blue
same,colony coloration,"Citrobacter freundii 022 [8]; cellobiose 5 g/l, 24 h",Pink
same,colony coloration,"Citrobacter freundii 022 [8]; cellobiose 5 g/l, 48 h",Blue
same,colony coloration,"Citrobacter freundii 022 [8]; cellobiose 10 g/l, 24 h",Mauve
same,colony coloration,"Citrobacter freundii 022 [8]; cellobiose 10 g/l, 48 h",Mauve
same,colony coloration,"Citrobacter freundii 031 [9]; cellobiose 0.1 g/l, 24 h",Violet
same,colony coloration,"Citrobacter freundii 031 [9]; cellobiose 0.1 g/l, 48 h",Green
same,colony coloration,"Citrobacter freundii 031 [9]; cellobiose 1 g/l, 24 h",Mauve
same,colony coloration,"Citrobacter freundii 031 [9]; cellobiose 1 g/l, 48 h",Green
same,colony coloration,"Citrobacter freundii 031 [9]; cellobiose 5 g/l, 24 h",Mauve
same,colony coloration,"Citrobacter freundii 031 [9]; cellobiose 5 g/l, 48 h",Green
same,colony coloration,"Citrobacter freundii 031 [9]; cellobiose 10 g/l, 24 h",Mauve
same,colony coloration,"Citrobacter freundii 031 [9]; cellobiose 10 g/l, 48 h",Mauve
same,colony coloration,"Citrobacter freundii 104 [10]; cellobiose 0.1 g/l, 24 h",Violet
same,colony coloration,"Citrobacter freundii 104 [10]; cellobiose 0.1 g/l, 48 h",Green
same,colony coloration,"Citrobacter freundii 104 [10]; cellobiose 1 g/l, 24 h",Violet
same,colony coloration,"Citrobacter freundii 104 [10]; cellobiose 1 g/l, 48 h",Green
same,colony coloration,"Citrobacter freundii 104 [10]; cellobiose 5 g/l, 24 h",Mauve
same,colony coloration,"Citrobacter freundii 104 [10]; cellobiose 5 g/l, 48 h",Green
same,colony coloration,"Citrobacter freundii 104 [10]; cellobiose 10 g/l, 24 h",Mauve
same,colony coloration,"Citrobacter freundii 104 [10]; cellobiose 10 g/l, 48 h",Mauve
same,colony coloration,"[11]; cellobiose 0.1 g/l, 24 h",Turquoise
same,colony coloration,"[11]; cellobiose 0.1 g/l, 48 h",Turquoise
same,colony coloration,"[11]; cellobiose 1 g/l, 24 h",Turquoise
same,colony coloration,"[11]; cellobiose 1 g/l, 48 h",Turquoise
same,colony coloration,"[11]; cellobiose 5 g/l, 24 h",Turquoise
same,colony coloration,"[11]; cellobiose 5 g/l, 48 h",Turquoise
same,colony coloration,"[11]; cellobiose 10 g/l, 24 h",Turquoise
same,colony coloration,"[11]; cellobiose 10 g/l, 48 h",Turquoise
same,colony coloration,"Escherichia coli 003 [12]; cellobiose 0.1 g/l, 24 h",Mauve
same,colony coloration,"Escherichia coli 003 [12]; cellobiose 0.1 g/l, 48 h",Mauve
same,colony coloration,"Escherichia coli 003 [12]; cellobiose 1 g/l, 24 h",Mauve
same,colony coloration,"Escherichia coli 003 [12]; cellobiose 1 g/l, 48 h",Mauve
same,colony coloration,"Escherichia coli 003 [12]; cellobiose 5 g/l, 24 h",Mauve
same,colony coloration,"Escherichia coli 003 [12]; cellobiose 5 g/l, 48 h",Mauve
same,colony coloration,"Escherichia coli 003 [12]; cellobiose 10 g/l, 24 h",Mauve
same,colony coloration,"Escherichia coli 003 [12]; cellobiose 10 g/l, 48 h",Mauve
same,colony coloration,"Escherichia coli 018; cellobiose 0.1 g/l, 24 h",Mauve
same,colony coloration,"Escherichia coli 018; cellobiose 0.1 g/l, 48 h",Mauve
same,colony coloration,"Escherichia coli 018; cellobiose 1 g/l, 24 h",Mauve
same,colony coloration,"Escherichia coli 018; cellobiose 1 g/l, 48 h",Mauve
same,colony coloration,"Escherichia coli 018; cellobiose 5 g/l, 24 h",Mauve
same,colony coloration,"Escherichia coli 018; cellobiose 5 g/l, 48 h",Mauve
same,colony coloration,"Escherichia coli 018; cellobiose 10 g/l, 24 h",Mauve
same,colony coloration,"Escherichia coli 018; cellobiose 10 g/l, 48 h",Mauve
same,colony coloration,"[13]; cellobiose 0.1 g/l, 24 h",Green
same,colony coloration,"[13]; cellobiose 0.1 g/l, 48 h",Blue
same,colony coloration,"[13]; cellobiose 1 g/l, 24 h",Green
same,colony coloration,"[13]; cellobiose 1 g/l, 48 h",Blue
same,colony coloration,"[13]; cellobiose 5 g/l, 24 h",Turquoise
same,colony coloration,"[13]; cellobiose 5 g/l, 48 h",Blue
same,colony coloration,"[13]; cellobiose 10 g/l, 24 h",Turquoise
same,colony coloration,"[13]; cellobiose 10 g/l, 48 h",Blue
same,colony coloration,"Serratia marcescens 112 [14]; cellobiose 0.1 g/l, 24 h",Green
same,colony coloration,"Serratia marcescens 112 [14]; cellobiose 0.1 g/l, 48 h",Blue
same,colony coloration,"Serratia marcescens 112 [14]; cellobiose 1 g/l, 24 h",Green
same,colony coloration,"Serratia marcescens 112 [14]; cellobiose 1 g/l, 48 h",Blue
same,colony coloration,"Serratia marcescens 112 [14]; cellobiose 5 g/l, 24 h",Green
same,colony coloration,"Serratia marcescens 112 [14]; cellobiose 5 g/l, 48 h",Blue
same,colony coloration,"Serratia marcescens 112 [14]; cellobiose 10 g/l, 24 h",Turquoise
same,colony coloration,"Serratia marcescens 112 [14]; cellobiose 10 g/l, 48 h",Blue
same,coloration of the colonies (beta-glucosidase activity expressed),Citrobacter strains [15],green to violet coloration
same,differentiation of C. freundii from E. coli,Citrobacter strains [16]; cellobiose concentrations above 5 g/l,less marked
same,coloration of the colonies (beta-glucosidase activity expressed),"Citrobacter strains [16]; in the presence of cellobiose, supplemented Trypticase Soy medium",green to violet coloration
